Results as given in patent publication US10030047B2 (Hoffmann-La Roche Inc., priority 2015, dated 2018).
Values after ≈ are worked out from the molar mass of the structure shown.

The compounds below were run on A. baumannii strain ATCC19606 (assay: Minimum inhibitory concentration (MIC) determination, microbroth dilution (CLSI)). Conditions: Acinetobacter baumannii; A. baumannii ATCC19606; CAMHB; read after 20 hours; >=80% growth inhibition; read-out: ATCC19606 MIC.
Assay type: cell-based
How it was run: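 CLSI broth microdilution in cation-adjusted Mueller Hinton broth with twofold compound dilutions and ~5×10^5 CFU/ml inoculum, incubated at 35±2 °C. MIC read after 20 h as lowest concentration inhibiting ≥80% of growth, by eye and OD 600 nm.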
`CN1C(=O)[C@H](CCCCN)NC(=O)[C@H](CCCN)NCc2cccnc2Sc2c(Cl)cc(-c3cc(F)nc(F)c3)cc2CNC(=O)[C@@H]1Cc1c[nH]c2ccccc12` [Example 209, (11S,14S,17S)-14-(4-Amino-butyl)-11-(3-amino-propyl)-25-chloro-23-(2,6-difluoro-pyridin-4-yl)-17-(1H-indol-3-ylmethyl)-16-methyl-2-thia-4,10,13,16,19-pentaaza-tricyclo[19.4.0.0*3,8*]pentacosa-1(21),3(8),4,6,22,24-hexaene-12,15,18-trione] showed an MIC of 0.25 µg/mL (≈ 0.305 µM). `CNC(=O)CC[C@@H]1NCc2cccnc2Sc2c(Cl)cc(Cl)cc2CNC(=O)[C@H](Cc2c[nH]c3ccccc23)N(C)C(=O)[C@H](CCCCN)NC1=O` [Example 210, 3-[(11S,14S,17S)-14-(4-Amino-butyl)-23,25-dichloro-17-(1H-indol-3-ylmethyl)-16-methyl-12,15,18-trioxo-2-thia-4,10,13,16,19-pentaaza-tricyclo[19.4.0.0*3,8*]pentacosa-1(25),3(8),4,6,21,23-hexaen-11-yl]-N-methyl-propionamide] was tested, and the MIC was 16 µg/mL (≈ 20.8 µM). `CN1C(=O)[C@H](CCCCN)NC(=O)[C@H](CCCN)NCc2cccnc2Sc2c(Cl)cc(-c3ccc(C#N)cc3)cc2CNC(=O)[C@@H]1Cc1c[nH]c2ccccc12` [Example 211, 4-[(11S,14S,17S)-14-(4-Amino-butyl)-11-(3-amino-propyl)-25-chloro-17-(1H-indol-3-ylmethyl)-16-methyl-12,15,18-trioxo-2-thia-4,10,13,16,19-pentaaza-tricyclo[19.4.0.0*3,8*]pentacosa-1(25),3(8),4,6,21,23-hexaen-23-yl]-benzonitrile] showed an MIC of 16 µg/mL (≈ 19.8 µM). For `Cc1cc(-c2ccc(Cl)c3c2CNC(=O)[C@H](Cc2c[nH]c4ccccc24)N(C)C(=O)[C@H](CCCCN)NC(=O)[C@H](CCCN)NCc2cccnc2S3)ccn1` [Example 212, (11S,14S,17S)-14-(4-Amino-butyl)-11-(3-amino-propyl)-25-chloro-17-(1H-indol-3-ylmethyl)-16-methyl-22-(2-methyl-pyridin-4-yl)-2-thia-4,10,13,16,19-pentaaza-tricyclo[19.4.0.0*3,8*]pentacosa-1(25),3(8),4,6,21,23-hexaene-12,15,18-trione], the MIC was 32 µg/mL (≈ 40.2 µM). For `CN1C(=O)[C@H](CCCCN)NC(=O)[C@H](CCCN)NCc2cccnc2Sc2c(Cl)cc(-c3ccncn3)cc2CNC(=O)[C@@H]1Cc1c[nH]c2ccccc12` [Example 213, (11S,14S,17S)-14-(4-Amino-butyl)-11-(3-amino-propyl)-25-chloro-17-(1H-indol-3-ylmethyl)-16-methyl-23-pyrimidin-4-yl-2-thia-4,10,13,16,19-pentaaza-tricyclo[19.4.0.0*3,8*]pentacosa-1(21),3,5,7,22,24-hexaene-12,15,18-trione], the MIC was 2 µg/mL (≈ 2.55 µM). In the case of `CN1C(=O)[C@H](CCCCN)NC(=O)[C@H](CCCN)NCc2cccnc2Sc2c(Cl)cc(-c3ccc(S(N)(=O)=O)cc3)cc2CNC(=O)[C@@H]1Cc1c[nH]c2ccccc12` [Example 214, 4-[(11S,14S,17S)-14-(4-Amino-butyl)-11-(3-amino-propyl)-25-chloro-17-(1H-indol-3-ylmethyl)-16-methyl-12,15,18-trioxo-2-thia-4,10,13,16,19-pentaaza-tricyclo[19.4.0.0*3,8*]pentacosa-1(21),3,5,7,22,24-hexaen-23-yl]-benzenesulfonamide], the MIC is reported as 0.25 µg/mL (≈ 0.291 µM). `CN1C(=O)[C@H](CCCCN)NC(=O)[C@H](CCC(N)=O)NCc2cccnc2Sc2c(Cl)ccc(-c3cccnc3)c2CNC(=O)[C@@H]1Cc1c[nH]c2ccccc12` [Example 221, 3-[(11S,14S,17S)-14-(4-Amino-butyl)-25-chloro-17-(1H-indol-3-ylmethyl)-16-methyl-12,15,18-trioxo-22-pyridin-3-yl-2-thia-4,10,13,16,19-pentaaza-tricyclo[19.4.0.0*3,8*]pentacosa-1(25),3(8),4,6,21,23-hexaen-11-yl]-propionamide] was tested, and the MIC was 0.25 µg/mL (≈ 0.314 µM). `CN1C(=O)[C@H](CCCCN)NC(=O)[C@H](CCCN)NCc2cccnc2Sc2c(Cl)ccc(-c3ccnc(F)c3)c2CNC(=O)[C@@H]1Cc1c[nH]c2ccccc12` [Example 222, (11S,14S,17S)-14-(4-Amino-butyl)-11-(3-amino-propyl)-25-chloro-22-(2-fluoro-pyridin-4-yl)-17-(1H-indol-3-ylmethyl)-16-methyl-2-thia-4,10,13,16,19-pentaaza-tricyclo[19.4.0.0*3,8*]pentacosa-1(25),3(8),4,6,21,23hexaene-12,15,18-trione] showed an MIC of 0.12 µg/mL (≈ 0.15 µM). In the case of `CN1C(=O)[C@H](CCCCN)NC(=O)[C@H](CCCN)NCc2cccnc2Sc2c(Cl)cc(-c3ccnc(N)c3)cc2CNC(=O)[C@@H]1Cc1c[nH]c2ccccc12` [Example 223, (11S,14S,17S)-14-(4-Amino-butyl)-11-(3-amino-propyl)-23-(2-amino-pyridin-4-yl)-25-chloro-17-(1H-indol-3-ylmethyl)-16-methyl-2-thia-4,10,13,16,19-pentaaza-tricyclo[19.4.0.0*3,8*]pentacosa-1(21),3,5,7,22,24-hexaene-12,15,18-trione], the MIC is reported as 1 µg/mL (≈ 1.25 µM). `CN1C(=O)[C@H](CCCCN)NC(=O)[C@H](CCCN)NCc2cccnc2Sc2c(Cl)ccc(-c3ccc(S(N)(=O)=O)cc3)c2CNC(=O)[C@@H]1Cc1c[nH]c2ccccc12` [Example 224, 4-[(11S,14S,17S)-14-(4-Amino-butyl)-11-(3-amino-propyl)-25-chloro-17-(1H-indol-3-ylmethyl)-16-methyl-12,15,18-trioxo-2-thia-4,10,13,16,19-pentaaza-tricyclo[19.4.0.0*3,8*]pentacosa-1(21),3,5,7,22,24-hexaen-22-yl]-benzenesulfonamide] was tested, and the MIC was 0.12 µg/mL (≈ 0.139 µM). `CN1C(=O)[C@H](CCCCN)NC(=O)[C@H](CCCN)NCc2cccnc2Sc2c(Cl)ccc(-c3ccc(S(C)(=O)=O)cc3)c2CNC(=O)[C@@H]1Cc1c[nH]c2ccccc12` [Example 225, (11S,14S,17S)-14-(4-Amino-butyl)-11-(3-amino-propyl)-25-chloro-17-(1H-indol-3-ylmethyl)-22-(4-methanesulfonyl-phenyl)-16-methyl-2-thia-4,10,13,16,19-pentaaza-tricyclo[19.4.0.0*3,8*]pentacosa-1(21),3,5,7,22,24-hexaene-12,15,18-trione] was tested, and the MIC was 0.12 µg/mL (≈ 0.14 µM). Work on `CN1C(=O)[C@H](CCCCN)NC(=O)[C@H](CCCN)NCc2cccnc2Sc2c(Cl)cc(-n3ccnc3)cc2CNC(=O)[C@@H]1Cc1c[nH]c2ccccc12` [Example 227, (11S,14S,17S)-14-(4-Amino-butyl)-11-(3-amino-propyl)-25-chloro-23-imidazol-1-yl-17-(1H-indol-3-ylmethyl)-16-methyl-2-thia-4,10,13,16,19-pentaaza-tricyclo[19.4.0.0*3,8*]pentacosa-1(21),3,5,7,22,24-hexaene-12,15,18-trione] yielded an MIC of 4 µg/mL (≈ 5.19 µM). For `CN1C(=O)[C@H](CCCCN)NC(=O)[C@H](CCCN)NCc2cccnc2Sc2c(Cl)ccc(-c3ccc(N)nc3)c2CNC(=O)[C@@H]1Cc1c[nH]c2ccccc12` [Example 228, (11S,14S,17S)-14-(4-Amino-butyl)-11-(3-amino-propyl)-22-(6-amino-pyridin-3-yl)-25-chloro-17-(1H-indol-3-ylmethyl)-16-methyl-2-thia-4,10,13,16,19-pentaaza-tricyclo[19.4.0.0*3,8*]pentacosa-1(21),3,5,7,22,24-hexaene-12,15,18-trione], the MIC was 0.12 µg/mL (≈ 0.15 µM).
